# Article PMC5218480 (PLoS ONE, 2017)
# System: MV-4-11 cells
# Test: Gene expression microarray analysis (Affymetrix PrimeView) and GSEA
# Assay type: cell-based, human
# Set-up: RFU PODN (11730768_x_at) / Fold change /veh PODN (11730768_x_at) / RFU LINC00158 (11744669_a_at) / Fold change /veh LINC00158 (11744669_a_at) / RFU DUSP10 (11751237_a_at) / Fold change /veh DUSP10 (11751237_a_at) / RFU ID3 (11757404_x_at) / Fold change /veh ID3 (11757404_x_at) / RFU PLEKHG5 (11737974_s_at) / Fold change /veh PLEKHG5 (11737974_s_at) / RFU LRRC4B (11730491_at) / Fold change /veh LRRC4B (11730491_at) / RFU GIMAP4 (11747438_a_at) / Fold change /veh GIMAP4 (11747438_a_at) / RFU KRT8 (11758183_x_at) / Fold change /veh KRT8 (11758183_x_at) / RFU CNN1 (11734310_a_at) / Fold change /veh CNN1 (11734310_a_at) / RFU VPS37D (11726825_at) / Fold change /veh VPS37D (11726825_at) / RFU C10orf10 (11716522_x_at) / Fold change /veh C10orf10 (11716522_x_at) / RFU KIR2DL2 /// KIR2DL4 /// KIR2DL5A /// KIR2DL5B /// KIR2DS1 /// KIR2DS2 /// KIR2DS3 /// KIR2DS4 /// KIR3DL3 /// KIR3DL3 /// KIR3DS1 (11738374_at) / Fold change /veh KIR2DL2 /// KIR2DL4 /// KIR2DL5A /// KIR2DL5B /// KIR2DS1 /// KIR2DS2 /// KIR2DS3 /// KIR2DS4 /// KIR3DL3 /// KIR3DL3 /// KIR3DS1 (11738374_at) / RFU C1QL1 (11718748_at) / Fold change /veh C1QL1 (11718748_at) / RFU TMPRSS4 (11747572_a_at) / Fold change /veh TMPRSS4 (11747572_a_at) / RFU HAMP (11756126_x_at) / Fold change /veh HAMP (11756126_x_at) / RFU RNFT2 (11725882_a_at) / Fold change /veh RNFT2 (11725882_a_at) / RFU NR4A2 (11747474_a_at) / Fold change /veh NR4A2 (11747474_a_at) / RFU ABCC12 (11746883_a_at) / Fold change /veh ABCC12 (11746883_a_at) / RFU TMEM136 (11760407_x_at) / Fold change /veh TMEM136 (11760407_x_at) / RFU CLDN22 /// WWC2 (11732394_at) / Fold change /veh CLDN22 /// WWC2 (11732394_at) / RFU HLA-DPB1 (11760878_x_at) / Fold change /veh HLA-DPB1 (11760878_x_at) / RFU SPINT1 (11716480_a_at) / Fold change /veh SPINT1 (11716480_a_at) / RFU GAP43 (11754022_s_at) / Fold change /veh GAP43 (11754022_s_at) / RFU A4GNT (11735810_at) / Fold change /veh A4GNT (11735810_at) / RFU PRB3 (11715151_x_at) / Fold change /veh PRB3 (11715151_x_at) / RFU TUBB4B (11761932_at) / Fold change /veh TUBB4B (11761932_at) / RFU CAPN14 (11732068_a_at) / Fold change /veh CAPN14 (11732068_a_at) / RFU TMCC2 (11721928_a_at) / Fold change /veh TMCC2 (11721928_a_at) / RFU IRGQ (11745062_a_at) / Fold change /veh IRGQ (11745062_a_at) / RFU FAM174B (11720279_a_at) / Fold change /veh FAM174B (11720279_a_at) / RFU TMPRSS4 (11748680_a_at) / Fold change /veh TMPRSS4 (11748680_a_at) / RFU FAM212B (11763350_a_at) / Fold change /veh FAM212B (11763350_a_at) / RFU PLEKHG5 (11743358_a_at) / Fold change /veh PLEKHG5 (11743358_a_at) / RFU ZSCAN30 (11745921_a_at) / Fold change /veh ZSCAN30 (11745921_a_at) / RFU CMKLR1 (11741424_a_at) / Fold change /veh CMKLR1 (11741424_a_at) / RFU LOC101060620 /// MAPK8IP1 (11723275_at) / Fold change /veh LOC101060620 /// MAPK8IP1 (11723275_at) / RFU SPTSSB (11747773_x_at) / Fold change /veh SPTSSB (11747773_x_at) / RFU PRSS12 (11739890_at) / Fold change /veh PRSS12 (11739890_at) / RFU BIN1 (11741810_x_at) / Fold change /veh BIN1 (11741810_x_at) / RFU WNT11 (11732464_a_at) / Fold change /veh WNT11 (11732464_a_at) / RFU C10orf10 (11716521_a_at) / Fold change /veh C10orf10 (11716521_a_at) / RFU C5orf56 (11738089_at) / Fold change /veh C5orf56 (11738089_at) / RFU CYB561 (11721691_x_at) / Fold change /veh CYB561 (11721691_x_at) / RFU ANKRD19P (11752326_a_at) / Fold change /veh ANKRD19P (11752326_a_at) / RFU OR2T12 /// OR2T33 /// OR2T8 (11738714_s_at) / Fold change /veh OR2T12 /// OR2T33 /// OR2T8 (11738714_s_at) / RFU VCAN (11748164_a_at) / Fold change /veh VCAN (11748164_a_at) / RFU JSRP1 (11732532_at) / Fold change /veh JSRP1 (11732532_at) / RFU KRTAP10-11 (11738290_x_at) / Fold change /veh KRTAP10-11 (11738290_x_at) / RFU MYO3A (11730013_a_at) / Fold change /veh MYO3A (11730013_a_at) / RFU EBF3 (11725865_a_at) / Fold change /veh EBF3 (11725865_a_at) / RFU CAMK2N1 (11719241_x_at) / Fold change /veh CAMK2N1 (11719241_x_at) / RFU C5orf56 (11738088_a_at) / Fold change /veh C5orf56 (11738088_a_at) / RFU OLFML3 (11715873_a_at) / Fold change /veh OLFML3 (11715873_a_at) / RFU LOC100653217 /// NTM (11731650_a_at) / Fold change /veh LOC100653217 /// NTM (11731650_a_at) / RFU MAPK11 (11762145_a_at) / Fold change /veh MAPK11 (11762145_a_at) / RFU FIZ1 (11724087_x_at) / Fold change /veh FIZ1 (11724087_x_at) / RFU OASL (11726364_x_at) / Fold change /veh OASL (11726364_x_at) / RFU SOX15 (11748057_x_at) / Fold change /veh SOX15 (11748057_x_at) / RFU CD79A (11719716_a_at) / Fold change /veh CD79A (11719716_a_at) / RFU HIST1H1D (11736915_at) / Fold change /veh HIST1H1D (11736915_at) / RFU CASKIN2 (11723855_a_at) / Fold change /veh CASKIN2 (11723855_a_at) / RFU LOC730098 (11760151_x_at) / Fold change /veh LOC730098 (11760151_x_at) / RFU OR4N2 (11742367_at) / Fold change /veh OR4N2 (11742367_at) / RFU PRRT2 (11749266_a_at) / Fold change /veh PRRT2 (11749266_a_at) / RFU SNX32 (11753110_a_at) / Fold change /veh SNX32 (11753110_a_at) / RFU CDHR5 (11726645_a_at) / Fold change /veh CDHR5 (11726645_a_at) / RFU RCAN1 (11760418_a_at) / Fold change /veh RCAN1 (11760418_a_at) / RFU FAM167A (11723789_a_at) / Fold change /veh FAM167A (11723789_a_at) / RFU FAM26E (11764081_at) / Fold change /veh FAM26E (11764081_at) / RFU ISYNA1 (11749810_s_at) / Fold change /veh ISYNA1 (11749810_s_at) / RFU ACY1 (11761880_at) / Fold change /veh ACY1 (11761880_at) / RFU 11764098_at / Fold change /veh 11764098_at / RFU SAMD14 (11745864_x_at) / Fold change /veh SAMD14 (11745864_x_at) / RFU NPB (11741838_a_at) / Fold change /veh NPB (11741838_a_at) / RFU TMPRSS6 (11731388_a_at) / Fold change /veh TMPRSS6 (11731388_a_at) / RFU KRTAP10-2 (11738614_at) / Fold change /veh KRTAP10-2 (11738614_at) / RFU ARHGAP8 /// PRR5-ARHGAP8 (11727945_x_at) / Fold change /veh ARHGAP8 /// PRR5-ARHGAP8 (11727945_x_at) / RFU KRTAP5-7 /// NADSYN1 (11734609_at) / Fold change /veh KRTAP5-7 /// NADSYN1 (11734609_at) / RFU RASL12 (11751679_a_at) / Fold change /veh RASL12 (11751679_a_at) / RFU CDKN2B (11736163_a_at) / Fold change /veh CDKN2B (11736163_a_at) / RFU PRF1 (11729649_at) / Fold change /veh PRF1 (11729649_at) / RFU, ZNF638 /// ZNF638-IT1 / Fold change vs veh, ZNF638 /// ZNF638-IT1 / RFU, PANK3 / Fold change vs veh, PANK3 / RFU, SH3YL1 / Fold change vs veh, SH3YL1 / RFU, ZEB2 / Fold change vs veh, ZEB2 / RFU, NRIP1 / Fold change vs veh, NRIP1 / RFU, PTTG1IP / Fold change vs veh, PTTG1IP / RFU, CAPN2 / Fold change vs veh, CAPN2 / RFU, MED14 / Fold change vs veh, MED14 / RFU, SNORA58 / Fold change vs veh, SNORA58 / RFU, C1orf63 / Fold change vs veh, C1orf63 / RFU, LRRFIP1 / Fold change vs veh, LRRFIP1 / RFU, NDUFAF7 / Fold change vs veh, NDUFAF7 / RFU, SLC12A2 / Fold change vs veh, SLC12A2 / RFU, IBTK / Fold change vs veh, IBTK / RFU, ESF1 / Fold change vs veh, ESF1 / Fold change vs veh, TMEM50B / RFU, TAOK1 / Fold change vs veh, TAOK1 / RFU, ACBD3 / Fold change vs veh, ACBD3 / RFU, TMA16 / Fold change vs veh, TMA16 / RFU, RWDD3 / Fold change vs veh, RWDD3 / RFU, BCAT1 / Fold change vs veh, BCAT1 / RFU, EDEM3 / Fold change vs veh, EDEM3 / RFU, TMEM33 / Fold change vs veh, TMEM33 / RFU, WDR75 / Fold change vs veh, WDR75 / RFU, AHCTF1 / Fold change vs veh, AHCTF1 / RFU, TFRC / Fold change vs veh, TFRC / RFU, ZDHHC17 / Fold change vs veh, ZDHHC17 / RFU, NOM1 / Fold change vs veh, NOM1 / RFU, ARL8B / Fold change vs veh, ARL8B / RFU, ZBTB11 / Fold change vs veh, ZBTB11 / RFU, TAMM41 / Fold change vs veh, TAMM41 / RFU, KIAA1704 /// LOC100996395 / Fold change vs veh, KIAA1704 /// LOC100996395 / RFU, ING1 / Fold change vs veh, ING1 / RFU, TRMT61B / Fold change vs veh, TRMT61B / RFU, FUBP3 / Fold change vs veh, FUBP3 / RFU, TP53 / Fold change vs veh, TP53 / RFU, TNKS2 / Fold change vs veh, TNKS2 / RFU, ZFP14 / Fold change vs veh, ZFP14 / RFU, ACTR2 / Fold change vs veh, ACTR2 / RFU, PPP3R1 / Fold change vs veh, PPP3R1 / RFU, PIK3R1 / Fold change vs veh, PIK3R1 / RFU, HNRNPA1 / Fold change vs veh, HNRNPA1 / RFU, RNF170 / Fold change vs veh, RNF170 / RFU, ZNF28 / Fold change vs veh, ZNF28 / RFU, RNGTT / Fold change vs veh, RNGTT / RFU, OGT / Fold change vs veh, OGT / RFU, BRD1 / Fold change vs veh, BRD1 / RFU, MARS / Fold change vs veh, MARS / RFU, ZNF655 / Fold change vs veh, ZNF655 / RFU, FAHD1 / Fold change vs veh, FAHD1 / RFU, BDP1 / Fold change vs veh, BDP1 / RFU, LRRCC1 / Fold change vs veh, LRRCC1 / RFU, ARID1A / Fold change vs veh, ARID1A / RFU, ZNF146 / Fold change vs veh, ZNF146 / RFU, ZNF330 / Fold change vs veh, ZNF330 / RFU, GPN3 / Fold change vs veh, GPN3 / RFU, C9orf123 / Fold change vs veh, C9orf123 / RFU, N4BP2L2 / Fold change vs veh, N4BP2L2 / RFU, ARFIP1 / Fold change vs veh, ARFIP1 / RFU, FAM179B / Fold change vs veh, FAM179B / RFU, BCL10 / Fold change vs veh, BCL10 / RFU, UHRF1BP1L / Fold change vs veh, UHRF1BP1L / RFU, BET1 / Fold change vs veh, BET1 / RFU, CNOT2 / Fold change vs veh, CNOT2 / RFU, ZNF268 / Fold change vs veh, ZNF268 / Fold change vs veh, ZNF507 / RFU, DGCR2 / Fold change vs veh, DGCR2 / RFU, WDSUB1 / Fold change vs veh, WDSUB1 / Fold change vs veh, HSP90B1 /// MIR3652 / RFU, ADSS / Fold change vs veh, ADSS / RFU, GK / Fold change vs veh, GK / RFU, ZNF148 / Fold change vs veh, ZNF148 / RFU, TAF9 / Fold change vs veh, TAF9 / RFU, SLC1A5 / Fold change vs veh, SLC1A5 / RFU, SLMO2 / Fold change vs veh, SLMO2 / RFU, ABCC4 / Fold change vs veh, ABCC4 / RFU, LOC101060439 /// RAP1B / Fold change vs veh, LOC101060439 /// RAP1B / RFU, RFX7 / Fold change vs veh, RFX7 / RFU, GTPBP10 / Fold change vs veh, GTPBP10 / RFU, CNEP1R1 / Fold change vs veh, CNEP1R1 / RFU, BIVM-ERCC5 /// ERCC5 / Fold change vs veh, BIVM-ERCC5 /// ERCC5 / RFU, ILF3 / Fold change vs veh, ILF3 / RFU 11762660_at / Fold change /veh 11762660_at / RFU VCAN (11757783_s_at) / Fold change /veh VCAN (11757783_s_at) / RFU DDX43 (11728927_at) / Fold change /veh DDX43 (11728927_at) / RFU KRT8 (11758188_x_at) / Fold change /veh KRT8 (11758188_x_at) / RFU NKD1 (11759106_at) / Fold change /veh NKD1 (11759106_at) / RFU SRD5A1 (11742802_a_at) / Fold change /veh SRD5A1 (11742802_a_at) / RFU TPSAB1 /// TPSB2 (11721975_s_at) / Fold change /veh TPSAB1 /// TPSB2 (11721975_s_at) / RFU GSTM3 (11746129_a_at) / Fold change /veh GSTM3 (11746129_a_at) / RFU IL23R (11737362_x_at) / Fold change /veh IL23R (11737362_x_at) / RFU TMEM51 (11727254_a_at) / Fold change /veh TMEM51 (11727254_a_at) / RFU PIWIL2 (11732686_x_at) / Fold change /veh PIWIL2 (11732686_x_at) / RFU ORM1 (11744905_x_at) / Fold change /veh ORM1 (11744905_x_at) / RFU CCDC152 (11743942_at) / Fold change /veh CCDC152 (11743942_at) / RFU ECM1 (11717891_a_at) / Fold change /veh ECM1 (11717891_a_at) / RFU IL23R (11748794_a_at) / Fold change /veh IL23R (11748794_a_at) / RFU TNFAIP8L3 (11732012_x_at) / Fold change /veh TNFAIP8L3 (11732012_x_at) / RFU MBOAT4 (11741988_at) / Fold change /veh MBOAT4 (11741988_at) / RFU 11764193_at / Fold change /veh 11764193_at / RFU TMEM53 (11763286_at) / Fold change /veh TMEM53 (11763286_at) / RFU MAGEB2 (11727129_at) / Fold change /veh MAGEB2 (11727129_at) / RFU TMEM200A (11744735_a_at) / Fold change /veh TMEM200A (11744735_a_at) / RFU CCDC152 (11751479_a_at) / Fold change /veh CCDC152 (11751479_a_at) / RFU FAM211A (11726209_a_at) / Fold change /veh FAM211A (11726209_a_at) / RFU RGS16 (11746705_a_at) / Fold change /veh RGS16 (11746705_a_at) / RFU VCAN (11755009_s_at) / Fold change /veh VCAN (11755009_s_at) / RFU RHOB (11743442_s_at) / Fold change /veh RHOB (11743442_s_at) / RFU RGS16 (11720943_a_at) / Fold change /veh RGS16 (11720943_a_at) / RFU RGS16 (11720944_at) / Fold change /veh RGS16 (11720944_at) / RFU, VPS4B / Fold change vs veh, VPS4B / RFU, CREB1 / Fold change vs veh, CREB1 / RFU, DNAJC13 / Fold change vs veh, DNAJC13 / RFU, GNAQ / Fold change vs veh, GNAQ / RFU, CDK5R1 / Fold change vs veh, CDK5R1 / RFU, ZRANB3 / Fold change vs veh, ZRANB3 / RFU, CUL4A / Fold change vs veh, CUL4A / RFU, CCNY / Fold change vs veh, CCNY / RFU, UFL1 / Fold change vs veh, UFL1 / RFU, COG3 / Fold change vs veh, COG3 / RFU, DIAPH2 / Fold change vs veh, DIAPH2 / RFU, SKA2 / Fold change vs veh, SKA2 / RFU, AFF3 / Fold change vs veh, AFF3 / RFU, LMF1 / Fold change vs veh, LMF1 / RFU, IPO11 / Fold change vs veh, IPO11 / RFU, DFFB / Fold change vs veh, DFFB / RFU, FOXP1 / Fold change vs veh, FOXP1 / RFU, CARD8 / Fold change vs veh, CARD8 / RFU, STRN3 / Fold change vs veh, STRN3 / RFU, ADK / Fold change vs veh, ADK / RFU, RASSF2 / Fold change vs veh, RASSF2 / RFU, WIPF1 / Fold change vs veh, WIPF1 / RFU, LARP1B / Fold change vs veh, LARP1B / RFU, RASA1 / Fold change vs veh, RASA1 / RFU, RB1 / Fold change vs veh, RB1 / RFU, PPFIA1 / Fold change vs veh, PPFIA1 / RFU, MAT2A / Fold change vs veh, MAT2A / RFU, CCT5 / Fold change vs veh, CCT5 / RFU, WDR92 / Fold change vs veh, WDR92 / RFU, CUX1 / Fold change vs veh, CUX1 / RFU, TTC7A / Fold change vs veh, TTC7A / RFU, TMEM135 / Fold change vs veh, TMEM135 / RFU, DEPTOR / Fold change vs veh, DEPTOR / RFU, CPM / Fold change vs veh, CPM / RFU, DNAJB6 / Fold change vs veh, DNAJB6 / RFU, CACNA2D3 / Fold change vs veh, CACNA2D3 / RFU, DTX4 / Fold change vs veh, DTX4 / RFU, TFCP2 / Fold change vs veh, TFCP2 / RFU, GMCL1 /// GMCL1P1 / Fold change vs veh, GMCL1 /// GMCL1P1 / RFU, AEBP2 / Fold change vs veh, AEBP2 / RFU, SNHG1 /// SNORD22 /// SNORD25 /// SNORD26 /// SNORD27 /// SNORD28 /// SNORD29 /// SNORD31 / Fold change vs veh, SNHG1 /// SNORD22 /// SNORD25 /// SNORD26 /// SNORD27 /// SNORD28 /// SNORD29 /// SNORD31 / Fold change (Aza/veh), C12orf56 (ProbeSet 11735607_a_at) / Fold change (ACY-1035/veh), C12orf56 (ProbeSet 11735607_a_at) / Fold change (Aza/veh), FGFR1OP (ProbeSet 11751329_s_at) / Fold change (ACY-1035/veh), FGFR1OP (ProbeSet 11751329_s_at) / Fold change (Aza/veh), VPS36 (ProbeSet 11739960_a_at) / Fold change (ACY-1035/veh), VPS36 (ProbeSet 11739960_a_at) / RFU SYPL1 (11715823_x_at) / Fold change /veh SYPL1 (11715823_x_at) / RFU IGFBP7 (11715501_s_at) / Fold change /veh IGFBP7 (11715501_s_at) / RFU REEP3 (11722064_at) / Fold change /veh REEP3 (11722064_at) / RFU IGLL1 (11728026_x_at) / Fold change /veh IGLL1 (11728026_x_at): dose or concentration left out as unconfirmed
# Conditions: ProbeSet 11725902_s_at; LIST D
compound,measurement,value
Nc1ccc(-c2cccs2)cc1NC(=O)c1ccc2c(c1)cc(C1CC1)n2CCN1CCOCC1 [ACY-1035],"Fold change vs veh, TMEM135",0.99
